Results taken from patent US9833497B2, “Human originated EGF domain proteins and use of the same” (CHENGDU SOURCEBIO LIMITED-LIABILITY COMPANY, priority 2013, dated 2017).

Assays:
Assay type in all cases: cell-based
[1] = test system: Citrobacter diversus; assay: MIC against Gram-negative bacteria: Citrobacter diversus
Procedure, shortened: (§1)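 Growth inhibition by human EGF domain proteins was scored in LB liquid culture seeded at 5×10^5 CFU/mL. Protein was applied as a two-fold dilution series in triplicate, with shaking incubation at 37° C; MIC is the lowest concentration giving no growth.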

[2] = test system: Enterobacter cloacae; assay: MIC against Gram-negative bacteria: Enterobacter cloacae
Procedure, shortened: as §1

[3] = test system: Klebsiella pneumonia; assay: MIC against Gram-negative bacteria: Klebsiella pneumonia
Procedure, shortened: as §1

[4] = test system: Aeromonas hydrophila; assay: MIC against Gram-negative bacteria: Aeromonas hydrophila
Procedure, shortened: as §1

[5] = test system: Proteus vulgaris; assay: MIC against Gram-negative bacteria: Proteus vulgaris
Procedure, shortened: as §1

[6] = test system: Serratia marcescens; assay: MIC against Gram-negative bacteria: Serratia marcescens
Procedure, shortened: as §1

[7] = test system: Moraxella catarrhalis; assay: MIC against Gram-negative bacteria: Moraxella catarrhalis
Procedure, shortened: as §1

[8] = test system: E. coli BL21; assay: MIC against Gram-negative bacteria: E. coli BL21; settings: E. coli BL21
Procedure, shortened: as §1

[9] = test system: E. coli DH5α; assay: Antibacterial activity: MIC and growth curve against E. coli DH5α in 96-well plate; settings: minimal inhibitory concentration against E. coli DH5α; 96-well plate, 5×10^5 CFU/mL, 37° C., judged after 8 h
Procedure, shortened: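 Log-phase bacteria (OD600 ~0.5) resuspended in LB at 5×10^5 CFU/mL, exposed to recombinant protein at 50, 25, 12.5 μg/mL final in triplicate, 37 °C shaking at 175 rpm. OD600 read every 30 min; MIC is lowest concentration showing no growth.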

[10] = test system: Pseudomonas aeruginosa; assay: MIC against Gram-negative bacteria: Pseudomonas aeruginosa
Procedure, shortened: as §1

[11] = test system: Proteus mirabilis; assay: MIC against Gram-negative bacteria: Proteus mirabilis
Procedure, shortened: as §1

[12] = Citrobacter diversus, 96-well plate, 5×10^5 CFU/mL, 37° C., 10 h
[13] = Enterobacter cloacae, 96-well plate, 5×10^5 CFU/mL, 37° C., 10 h
[14] = Klebsiella pneumonia, 96-well plate, 5×10^5 CFU/mL, 37° C., 10 h
[15] = Aeromonas hydrophila, 96-well plate, 5×10^5 CFU/mL, 37° C., 10 h
[16] = Proteus vulgaris, 96-well plate, 5×10^5 CFU/mL, 37° C., 10 h
[17] = Serratia marcescens, 96-well plate, 5×10^5 CFU/mL, 37° C., 10 h
[18] = Moraxella catarrhalis, 96-well plate, 5×10^5 CFU/mL, 37° C., 10 h
[19] = 96-well plate, 5×10^5 CFU/mL, 37° C., 10 h
[20] = Pseudomonas aeruginosa, 96-well plate, 5×10^5 CFU/mL, 37° C., 10 h
[21] = Proteus mirabilis, 96-well plate, 5×10^5 CFU/mL, 37° C., 10 h
[22] = C. diversus, 10 h cultivation at 37° C., 5×10^5 CFU/mL
[23] = E. cloacae, 10 h cultivation at 37° C., 5×10^5 CFU/mL
[24] = K. pneumonia, 10 h cultivation at 37° C., 5×10^5 CFU/mL
[25] = A. hydrophila, 10 h cultivation at 37° C., 5×10^5 CFU/mL
[26] = P. vulgaris, 10 h cultivation at 37° C., 5×10^5 CFU/mL
[27] = S. marcescens, 10 h cultivation at 37° C., 5×10^5 CFU/mL
[28] = M. catarrhalis, 10 h cultivation at 37° C., 5×10^5 CFU/mL
[29] = 10 h cultivation at 37° C., 5×10^5 CFU/mL
[30] = P. aeruginosa, 10 h cultivation at 37° C., 5×10^5 CFU/mL
[31] = P. mirabilis, 10 h cultivation at 37° C., 5×10^5 CFU/mL

In the case of “PRT1343 (VFHECFFNPCHNSGTCQQLGRGYVCLCPLGYTGLKCE; listed as Homo sapiens)”, the “MIC against C. diversus” value [1, 12] was 50 µg/mL, the “MIC against E. cloacae” value [2, 13] was 25 µg/mL and the “MIC against K. pneumonia” value [3, 14] was 25 µg/mL. For the same substance, the “MIC against A. hydrophila” value [4, 15] was 12.5 µg/mL, the “MIC against P. vulgaris” value [5, 16] was 25 µg/mL and the “MIC against S. marcescens” value [6, 17] was 50 µg/mL. For the same substance, the “MIC against M. catarrhalis” value [7, 18] was 25 µg/mL, the “MIC against E. coli BL21” value [8, 19] was 25 µg/mL and the MIC [9] was 12.5 µg/mL. The “MIC against P. aeruginosa” value [10, 20] was 50 µg/mL and the “MIC against P. mirabilis” value [11, 21] was 12.5 µg/mL.
In the case of “PRT242 (CEPGCKFGECVGPNKCRCFPGYTGKTC; listed as Homo sapiens)”, the “MIC (μg/mL) C. diversus” value [1, 22] was 12.5 µg/mL, the “MIC (μg/mL) E. cloacae” value [2, 23] was 12.5 µg/mL and the “MIC (μg/mL) K. pneumonia” value [3, 24] was 50 µg/mL. The “MIC (μg/mL) A. hydrophila” value [4, 25] was 12.5 µg/mL, the “MIC (μg/mL) P. vulgaris” value [5, 26] was 12.5 µg/mL and the “MIC (μg/mL) S. marcescens” value [6, 27] was 12.5 µg/mL. The “MIC (μg/mL) M. catarrhalis” value [7, 28] was 12.5 µg/mL, the “MIC (μg/mL) E. coli BL21” value [8, 29] was 12.5 µg/mL and the MIC [9] was 12.5 µg/mL. The “MIC (μg/mL) P. aeruginosa” value [10, 30] was 50 µg/mL and the “MIC (μg/mL) P. mirabilis” value [11, 31] was 12.5 µg/mL.
“PRT915 (ASSPCLGGNPCYNQGTCEPTSESPFYRCLCPAKFNGLLCH; listed as Homo sapiens)” showed an MIC ([1]; C. diversus, 10 h cultivation at 37° C.) of 25 µg/mL, an MIC ([2]; E. cloacae, 10 h cultivation at 37° C.) of 12.5 µg/mL and an MIC ([3]; K. pneumonia, 10 h cultivation at 37° C.) of 25 µg/mL. It also gave an MIC ([4]; A. hydrophila, 10 h cultivation at 37° C.) of 25 µg/mL, an MIC ([5]; P. vulgaris, 10 h cultivation at 37° C.) of 25 µg/mL and an MIC ([6]; S. marcescens, 10 h cultivation at 37° C.) of 25 µg/mL. It also gave an MIC ([7]; M. catarrhalis, 10 h cultivation at 37° C.) of 50 µg/mL, an MIC ([8]; 10 h cultivation at 37° C.) of 25 µg/mL and an MIC [9] of 25 µg/mL. For the same substance, the MIC ([10]; P. aeruginosa, 10 h cultivation at 37° C.) was 50 µg/mL and the MIC ([11]; P. mirabilis, 10 h cultivation at 37° C.) was 25 µg/mL.
With “PRT121 (CGPCFNNGVPILEGTSCRCQCRLGSLGAACE; listed as Homo sapiens)” the “MIC (μg/mL) C. diversus” value [1, 12] was 50 µg/mL, the “MIC (μg/mL) E. cloacae” value [2, 13] was 50 µg/mL and the “MIC (μg/mL) K. pneumonia” value [3, 14] was 12.5 µg/mL. The “MIC (μg/mL) A. hydrophila” value [4, 15] was 12.5 µg/mL, the “MIC (μg/mL) P. vulgaris” value [5, 16] was 50 µg/mL and the “MIC (μg/mL) S. marcescens” value [6, 17] was 25 µg/mL. The “MIC (μg/mL) M. catarrhalis” value [7, 18] was 12.5 µg/mL, the “MIC (μg/mL) E. coli BL21” value [8, 19] was 12.5 µg/mL and the MIC [9] was 25 µg/mL. For the same substance, the “MIC (μg/mL) P. aeruginosa” value [10, 20] was 25 µg/mL and the “MIC (μg/mL) P. mirabilis” value [11, 21] was 25 µg/mL.
With “PRT812 (YGKHCRKKCNCANRGRCHRLYGACLCDPGLYGRFCH; listed as Homo sapiens)” the “MIC (μg/mL) C. diversus” value [1, 22] was 12.5 µg/mL, the “MIC (μg/mL) E. cloacae” value [2, 23] was 50 µg/mL and the “MIC (μg/mL) K. pneumonia” value [3, 24] was 25 µg/mL. For the same substance, the “MIC (μg/mL) A. hydrophila” value [4, 25] was 25 µg/mL, the “MIC (μg/mL) P. vulgaris” value [5, 26] was 50 µg/mL and the “MIC (μg/mL) S. marcescens” value [6, 27] was 12.5 µg/mL. For the same substance, the “MIC (μg/mL) M. catarrhalis” value [7, 28] was 50 µg/mL, the “MIC (μg/mL) E. coli BL21” value [8, 29] was 12.5 µg/mL and the MIC [9] was 12.5 µg/mL. The “MIC (μg/mL) P. aeruginosa” value [10, 30] was 12.5 µg/mL and the “MIC (μg/mL) P. mirabilis” value [11, 31] was 12.5 µg/mL.
In the case of “PRT1494 (KALCTPRCMNGGLCVTPGFCICPPGFYGVNCD; listed as Homo sapiens)”, the “MIC (μg/mL) C. diversus” value [1, 12] was 25 µg/mL, the “MIC (μg/mL) E. cloacae” value [2, 13] was 25 µg/mL and the “MIC (μg/mL) K. pneumonia” value [3, 14] was 12.5 µg/mL. The “MIC (μg/mL) A. hydrophila” value [4, 15] was 12.5 µg/mL, the “MIC (μg/mL) P. vulgaris” value [5, 16] was 12.5 µg/mL and the “MIC (μg/mL) S. marcescens” value [6, 17] was 12.5 µg/mL. The “MIC (μg/mL) M. catarrhalis” value [7, 18] was 25 µg/mL, the “MIC (μg/mL) E. coli BL21” value [8, 19] was 12.5 µg/mL and the MIC [9] was 25 µg/mL. For the same substance, the “MIC (μg/mL) P. aeruginosa” value [10, 20] was 25 µg/mL and the “MIC (μg/mL) P. mirabilis” value [11, 21] was 12.5 µg/mL.
With “PRT181 (RADPCAARPCAHGGRCYAHFSGLVCACAPGYMGARCE; listed as Homo sapiens)” the “MIC (μg/mL) C. diversus” value [1, 22] was 25 µg/mL, the “MIC (μg/mL) E. cloacae” value [2, 23] was 25 µg/mL and the “MIC (μg/mL) K. pneumonia” value [3, 24] was 12.5 µg/mL. The “MIC (μg/mL) A. hydrophila” value [4, 25] was 50 µg/mL, the “MIC (μg/mL) P. vulgaris” value [5, 26] was 50 µg/mL and the “MIC (μg/mL) S. marcescens” value [6, 27] was 25 µg/mL. The “MIC (μg/mL) M. catarrhalis” value [7, 28] was 12.5 µg/mL, the “MIC (μg/mL) E. coli BL21” value [8, 29] was 50 µg/mL and the MIC [9] was 25 µg/mL. The “MIC (μg/mL) P. aeruginosa” value [10, 30] was 25 µg/mL and the “MIC (μg/mL) P. mirabilis” value [11, 31] was 25 µg/mL.
